The results in this text go back to ChEMBL document CHEMBL1201862, “PubChem BioAssay data set” (2004).

Among the test systems are SK-MEL-2; MDA-MB-231; IGROV-1; HCT-116; RPMI-8226; OVCAR-3; OVCAR-8; OVCAR-4; SF-268; HL-60; 786-0; NCI-H226; COLO 205; SK-MEL-28; EKVX; SN12C; SF-295; M14; HOP-92; UO-31.
Common to all, as to assay: growth of human tumour cells (NCI), 48 h

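Cells were grown in 96-well plates and exposed to each compound for 48 hours at five concentrations; endpoints were interpolated linearly between bracketing concentrations, or set to the highest concentration if not reached. GI50: concentration for 50% inhibition of growth.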 Calls of active or inactive are those of the source. Rule as the data show it: active = GI50 up to about 1.1 µM and inactive = higher.

Turning to `N#C[BH2-][n+]1ccc(C(=O)NNCc2ccccc2)cc1`, the GI50 in the experiment with SK-MEL-2, in the experiment on MDA-MB-231, with IGROV-1, with HCT-116, in the experiment on RPMI-8226 and in the experiment on OVCAR-3 was > 100 µM (inactive) throughout. The GI50 in the experiment with OVCAR-8, in the experiment with OVCAR-4, with SF-268, with HL-60, in the experiment with 786-0 and in the experiment with NCI-H226 was > 100 µM (inactive) each time. In addition, the GI50 in the experiment with COLO 205, in the experiment with SK-MEL-28, in the experiment on EKVX, in the experiment on SN12C, in the experiment on SF-295 and in the experiment on M14 was > 100 µM (inactive) each time. Also, the GI50 in the experiment with HOP-92 and in the experiment on UO-31 was > 100 µM (inactive) throughout.
Regarding `Cc1ccc(C(=O)Cc2nc3ncccc3[nH]c2=O)cc1`, the GI50 in the experiment on SK-MEL-2 was > 100 µM (inactive); with MDA-MB-231 it was 24.9 µM (inactive); with IGROV-1 it was 37.2 µM (inactive); in the experiment with HCT-116, 30.5 µM (inactive); in the experiment with RPMI-8226, 59 µM (inactive); in the experiment on OVCAR-3 it was 40.1 µM (inactive). The GI50 was 23.6 µM (inactive) in the experiment with OVCAR-8; 25.7 µM (inactive) with OVCAR-4; 41.6 µM (inactive) in the experiment with SF-268; > 100 µM (inactive) in the experiment with HL-60; 22.5 µM (inactive) with 786-0; 24.9 µM (inactive) with NCI-H226. Besides, the GI50 was 58.9 µM (inactive) with COLO 205; 32.8 µM (inactive) with SK-MEL-28; 33.2 µM (inactive) in the experiment on EKVX; 55.5 µM (inactive) in the experiment with SN12C; 45.4 µM (inactive) in the experiment with SF-295; 82.8 µM (inactive) in the experiment on M14. In addition, the GI50 was 14.6 µM (inactive) in the experiment on HOP-92 and 32.1 µM (inactive) in the experiment on UO-31.
For `Cc1c(C)c2c(c(N)c1C#N)C(=O)N(Nc1ccccc1)C2=O`, the GI50 was 96.8 µM (inactive) with SK-MEL-2; 31.9 µM (inactive) with MDA-MB-231; 42.7 µM (inactive) in the experiment with IGROV-1; > 100 µM (inactive) with HCT-116; > 100 µM (inactive) in the experiment on RPMI-8226; 52.2 µM (inactive) in the experiment with OVCAR-3. In addition, the GI50 in the experiment on OVCAR-8 was 33 µM (inactive); in the experiment with OVCAR-4 it was 33.4 µM (inactive); in the experiment on SF-268 it was 40.8 µM (inactive); with HL-60 it was 26.7 µM (inactive); in the experiment on 786-0, 51.9 µM (inactive); in the experiment on NCI-H226 it was 61.2 µM (inactive). Moreover, the GI50 in the experiment on COLO 205 is > 100 µM (inactive); in the experiment on SK-MEL-28, > 100 µM (inactive); in the experiment with EKVX, 43.9 µM (inactive); in the experiment with SN12C it was > 100 µM (inactive); in the experiment with SF-295 it was 34.1 µM (inactive); in the experiment on M14, > 100 µM (inactive). Further, the results for the GI50 in the experiment on HOP-92 and in the experiment with UO-31 were 28.5 µM (inactive) and 78.5 µM (inactive), respectively.
With `O=C(O)CC1OCC=C2C[N+]3([O-])CCC45c6ccccc6NC4C1C2CC53` (stereo not given), the GI50 is 17.7 µM (inactive) in the experiment with SK-MEL-2; > 100 µM (inactive) in the experiment on MDA-MB-231; > 100 µM (inactive) in the experiment with IGROV-1; > 100 µM (inactive) in the experiment on HCT-116; > 100 µM (inactive) in the experiment on RPMI-8226; > 100 µM (inactive) with OVCAR-3. The GI50 with OVCAR-8, in the experiment with OVCAR-4, in the experiment with SF-268, with HL-60, with 786-0 and with NCI-H226 was > 100 µM (inactive) each time. Besides, the GI50 with COLO 205, in the experiment with SK-MEL-28, in the experiment on EKVX, in the experiment on SN12C, with SF-295 and in the experiment on M14 was > 100 µM (inactive) throughout. Also, the GI50 in the experiment on HOP-92 and in the experiment with UO-31 was > 100 µM (inactive) in each case.
As to `COC(=O)[C@H]1[C@@H](O)[C@@]2(O)c3c(OC)cc(OC)cc3O[C@@]2(c2ccc3c(c2)OCO3)[C@@H]1c1ccccc1`, the GI50 is 0.0207 µM (active) in the experiment with SK-MEL-2; 0.0136 µM (active) in the experiment with MDA-MB-231; 0.00518 µM (active) in the experiment on IGROV-1; < 0.005 µM (active) in the experiment with HCT-116; < 0.005 µM (active) in the experiment with RPMI-8226; 0.0225 µM (active) in the experiment with OVCAR-3. Also, the GI50 is 0.0253 µM (active) in the experiment with OVCAR-8; 0.0149 µM (active) in the experiment on OVCAR-4; 0.0117 µM (active) with SF-268; 0.00629 µM (active) with HL-60; 0.00625 µM (active) with 786-0; 0.0136 µM (active) in the experiment with NCI-H226. Also, the GI50 in the experiment with COLO 205 was 0.00736 µM (active); in the experiment on SK-MEL-28, 0.00815 µM (active); with EKVX it was 0.017 µM (active); with SN12C it was 0.0076 µM (active); with SF-295 it was 0.00578 µM (active); in the experiment with M14, 0.00603 µM (active). The GI50 was 0.0408 µM (active) in the experiment on HOP-92 and 0.00604 µM (active) in the experiment with UO-31.
Consider `COc1cc2c3cc1Oc1c(O)c(OC)cc4c1[C@H](Cc1ccc(cc1)Oc1cc(ccc1O)C[C@H]3N(C)CC2)N(C)CC4`, for which the GI50 in the experiment with SK-MEL-2 was 12.3 µM (inactive); in the experiment with MDA-MB-231, 10.3 µM (inactive); with IGROV-1, 13.8 µM (inactive); with HCT-116 it was 5.77 µM (inactive); with RPMI-8226, 5.33 µM (inactive); in the experiment with OVCAR-3, 10.2 µM (inactive). The GI50 in the experiment with OVCAR-8 was 14.9 µM (inactive); in the experiment on OVCAR-4, 16.9 µM (inactive); in the experiment with SF-268, 14.4 µM (inactive); in the experiment on HL-60, 6.68 µM (inactive); in the experiment with 786-0 it was 6.52 µM (inactive); with NCI-H226, 29.4 µM (inactive). The GI50 with COLO 205 was 13.8 µM (inactive); in the experiment with SK-MEL-28, 19.2 µM (inactive); with EKVX, 16.7 µM (inactive); in the experiment with SN12C, 4.17 µM (inactive); in the experiment with SF-295 it was 12.4 µM (inactive); with M14 it was 2.25 µM (inactive). In addition, the GI50 with HOP-92 is 6.64 µM (inactive); in the experiment on UO-31, 12.6 µM (inactive).
Consider `COc1cccc(C23CCN(C)C(CC(O)C2)C3)c1OC` (stereo not given), for which the GI50 in the experiment on SK-MEL-2, with MDA-MB-231, in the experiment with IGROV-1, in the experiment on HCT-116, in the experiment with RPMI-8226 and in the experiment on OVCAR-3 was > 100 µM (inactive) in each case. The GI50 with OVCAR-8, in the experiment with OVCAR-4, in the experiment with SF-268, in the experiment with HL-60, with 786-0 and with NCI-H226 was > 100 µM (inactive) throughout. The GI50 with COLO 205, with SK-MEL-28, in the experiment on EKVX, with SN12C, in the experiment with SF-295 and in the experiment with M14 was > 100 µM (inactive) throughout. The GI50 in the experiment with HOP-92 and in the experiment with UO-31 was > 100 µM (inactive) each time.
With `COc1cc2c(cc1OC)[C@@](C)(C(O)C(O)C(C)(C)O)NCC2` (stereo not given in full), the GI50 in the experiment on SK-MEL-2, with MDA-MB-231, in the experiment on IGROV-1, in the experiment with HCT-116, in the experiment with RPMI-8226 and with OVCAR-3 was > 100 µM (inactive) throughout. In addition, the GI50 in the experiment on OVCAR-8, in the experiment with OVCAR-4, with SF-268, with HL-60, with 786-0 and with NCI-H226 was > 100 µM (inactive) each time. The GI50 in the experiment on COLO 205, in the experiment on SK-MEL-28, with EKVX, with SN12C, in the experiment with SF-295 and with M14 was > 100 µM (inactive) throughout. Also, the GI50 in the experiment on HOP-92 and in the experiment on UO-31 was > 100 µM (inactive) in each case.
As for `Cc1ccc(NC(Nc2ccc(C)cc2C)=C(/C=C(\Cl)[N+](=O)[O-])[N+](=O)[O-])c(C)c1`, the GI50 is 4.23 µM (inactive) with SK-MEL-2; 4.94 µM (inactive) with MDA-MB-231; 6.04 µM (inactive) in the experiment with IGROV-1; 1.7 µM (inactive) in the experiment on HCT-116; 1.55 µM (inactive) in the experiment with RPMI-8226; 2.72 µM (inactive) with OVCAR-3. The GI50 in the experiment with OVCAR-8 is 2.81 µM (inactive); with OVCAR-4, 3.69 µM (inactive); in the experiment with SF-268 it was 4.82 µM (inactive); with HL-60 it was 0.592 µM (active); in the experiment on 786-0 it was 2.81 µM (inactive); in the experiment with NCI-H226, 7 µM (inactive). The GI50 was 2.18 µM (inactive) with COLO 205; 2.34 µM (inactive) in the experiment with SK-MEL-28; 15.2 µM (inactive) with EKVX; 4.53 µM (inactive) in the experiment with SN12C; 16.6 µM (inactive) in the experiment on SF-295; 2.21 µM (inactive) in the experiment with M14. Further, the GI50 is 1.45 µM (inactive) in the experiment on HOP-92 and 5.9 µM (inactive) with UO-31.
Consider `Oc1ccc(Cl)cc1CN1CCN(Cc2cc(Cl)ccc2O)C1`, for which the GI50 in the experiment on SK-MEL-2 is 1.73 µM (inactive); in the experiment on MDA-MB-231, 0.403 µM (active); in the experiment with IGROV-1 it was 1.89 µM (inactive); in the experiment with HCT-116 it was 0.234 µM (active); with RPMI-8226, 2.27 µM (inactive); with OVCAR-3, 0.367 µM (active). Besides, the GI50 is 0.525 µM (active) in the experiment with OVCAR-8; 1.3 µM (inactive) with OVCAR-4; 1.09 µM (active) in the experiment with SF-268; 2.02 µM (inactive) in the experiment with HL-60; 0.203 µM (active) in the experiment on 786-0; 1.39 µM (inactive) with NCI-H226. In addition, the GI50 is 1.45 µM (inactive) in the experiment on COLO 205; 1.65 µM (inactive) in the experiment with SK-MEL-28; 1.57 µM (inactive) in the experiment with EKVX; 1.11 µM (active) with SN12C; 0.682 µM (active) with SF-295; 0.553 µM (active) in the experiment with M14. The GI50 in the experiment on HOP-92 was 1.15 µM (inactive); in the experiment with UO-31, 0.536 µM (active).
